For series [1], the system named is Ae. aegypti larvae. Description: whole plant or invertebrate. As to conditions: Aedes aegypti, 72 h, read-out: LC50, Aa.
Series [2] has as its system C. quinquefasciatus larvae. As to conditions: for LT50, Cq: at 400 μM; for earliest time debilitated larvae observed after exposure, C. quinquefasciatus: 400 μM; for larval mortality, C. quinquefasciatus, within the first 24 h: 24 h post exposure (S3 Fig).
In series [3] the target is T1, CqDOP2 (Culex quinquefasciatus, UniProt A0A0B5H0X6). Description: cell-based.
T1 sequence (A0A0B5H0X6 entry or part of it): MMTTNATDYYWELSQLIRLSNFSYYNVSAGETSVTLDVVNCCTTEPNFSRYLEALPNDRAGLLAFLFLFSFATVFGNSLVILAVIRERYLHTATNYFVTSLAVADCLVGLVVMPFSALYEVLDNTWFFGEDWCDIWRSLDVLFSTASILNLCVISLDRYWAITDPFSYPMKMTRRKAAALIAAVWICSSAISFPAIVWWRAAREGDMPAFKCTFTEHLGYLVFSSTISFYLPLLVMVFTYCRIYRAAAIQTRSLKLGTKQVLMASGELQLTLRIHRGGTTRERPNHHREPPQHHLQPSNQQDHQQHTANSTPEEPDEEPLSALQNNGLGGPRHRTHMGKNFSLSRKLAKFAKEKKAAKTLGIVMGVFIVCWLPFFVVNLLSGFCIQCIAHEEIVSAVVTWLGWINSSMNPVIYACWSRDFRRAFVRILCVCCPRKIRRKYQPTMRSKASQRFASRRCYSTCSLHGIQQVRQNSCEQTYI
The target of series [4] is T2, Human D1 (Homo sapiens, UniProt P21728).
T2 construct: expressed in transfected cells
T2 sequence (P21728 whole entry): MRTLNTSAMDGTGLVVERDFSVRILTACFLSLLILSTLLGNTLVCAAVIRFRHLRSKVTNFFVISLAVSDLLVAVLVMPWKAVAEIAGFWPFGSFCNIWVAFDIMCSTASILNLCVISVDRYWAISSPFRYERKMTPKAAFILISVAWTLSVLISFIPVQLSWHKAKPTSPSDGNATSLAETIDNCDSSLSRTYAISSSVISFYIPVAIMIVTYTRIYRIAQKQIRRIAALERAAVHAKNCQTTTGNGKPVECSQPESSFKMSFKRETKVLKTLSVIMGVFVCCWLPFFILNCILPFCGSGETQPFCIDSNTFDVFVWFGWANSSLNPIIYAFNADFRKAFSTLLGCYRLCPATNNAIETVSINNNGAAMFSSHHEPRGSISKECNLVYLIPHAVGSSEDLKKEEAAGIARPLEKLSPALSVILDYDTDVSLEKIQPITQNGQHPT
The series is described as follows: Inhibition of dopamine-stimulated cAMP response (HTRF) in HEK293 cells expressing human D1. The series is classed as cell-based.

Series [5] relates to C. quinquefasciatus larvae. Description: whole plant or invertebrate. As to conditions: Culex quinquefasciatus, 72 h, read-out: LC50, Cq.
Series [6] deals with Ae. aegypti larvae. As to conditions: for LT50, Aa: at 400 μM.
For series [7], the target named is T3, AaDOP2 (Aedes aegypti, UniProt H6D5H2).
T3 sequence (H6D5H2 1-476): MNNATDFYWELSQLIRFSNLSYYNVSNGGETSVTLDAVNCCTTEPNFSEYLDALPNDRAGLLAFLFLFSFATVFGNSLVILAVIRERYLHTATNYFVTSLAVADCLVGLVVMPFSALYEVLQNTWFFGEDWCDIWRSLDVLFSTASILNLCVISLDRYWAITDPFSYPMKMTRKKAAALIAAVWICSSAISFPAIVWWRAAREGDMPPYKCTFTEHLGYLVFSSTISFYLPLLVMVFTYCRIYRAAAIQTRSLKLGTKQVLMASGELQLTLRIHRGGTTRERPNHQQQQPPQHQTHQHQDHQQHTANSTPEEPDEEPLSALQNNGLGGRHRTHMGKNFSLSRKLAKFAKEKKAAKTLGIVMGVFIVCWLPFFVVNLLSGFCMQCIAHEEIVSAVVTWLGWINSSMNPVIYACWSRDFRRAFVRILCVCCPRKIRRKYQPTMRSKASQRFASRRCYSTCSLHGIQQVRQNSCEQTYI
The series is described as follows: cell-based.

For series [8], the target named is T1, CqDOP2. Description: HTRF cAMP accumulation assay, agonist response of CqDOP2 stably expressed in HEK293 cells. The series is classed as cell-based. As to conditions: for EC50 fold higher than that of dopamine, CqDOP2: cAMP response.
The target in series [9] is T3, AaDOP2. The series is described as follows: cell-based. This is another data set of the same source.
Series [10] concerns the target T3, AaDOP2. As to conditions: cAMP response.
Series [11] has as its system AmDOP2. Conditions: ref [19]; cited from earlier work.
Series [12] has as its target T1, CqDOP2. Conditions: read-out: IC50 for inhibition of dopamine-stimulated cAMP response, CqDOP2; HEK293 cells; dopamine 3 μM; ±SEM.
Where [13] appears, read: read-out: IC50 for inhibition of dopamine-stimulated cAMP response, Human D1.

Counter-ions that a name gives are not always drawn. Like-named read-outs stand apart in the source and are kept apart here. A value given as a limit tells only on which side of the number the result lay.

With `CN(C)CCC=C1c2ccccc2CCc2ccccc21` [Amitriptyline, amitriptyline hydrochloride], the LC50 in series [1] was 208 ± 137 µM; in [5], 165 ± 37 µM. Further, the “LT50, Cq” value in series [2] (L3 larvae, ±SEM, n ≥ 3) came to 41.7 ± 2.1 h. The values for the IC50 in [3], in [4] and in [7] were 0.0033 ± 0.0004 µM, 0.69 ± 0.052 µM and 0.0064 ± 0.002 µM, respectively. For the same compound, the “LT50, Aa” value in series [6] (L3 larvae, ±SEM, n ≥ 3) was 47.8 ± 6.3 h.

Take `CN1CC2c3ccccc3Oc3ccc(Cl)cc3C2C1` (stereo not shown) [Asenapine, asenapine maleate]: the figures for the 50% lethal concentration (LC50) in [1] and in series [5] were 102 ± 22 µM and 50 ± 10 µM, respectively. Also, in series [2] (L3 larvae, ±SEM, n ≥ 3), the “LT50, Cq” value was 24.2 ± 1.3 h. Moreover, the IC50 was 0.0008 ± 3e-05 µM in [3], 0.101 ± 0.002 µM in series [4] (setting [13]) and 0.0007 ± 0.0002 µM in [7]. Moreover, the “LT50, Aa” value in [6] (L3 larvae, ±SEM, n ≥ 3) amounted to 36.4 ± 1.6 h. Also, in [6] (in vivo), the “larval mortality, Ae. aegypti, after 48 h” value was over 70%.

Turning to `CN1CCc2cc(Cl)c(O)cc2[C@@H](c2ccccc2)C1` [SCH23390, SCH23390 hydrochloride], the IC50 in series [3] was 0.745 ± 0.062 µM; in series [7], 0.709 ± 0.187 µM.

As for `CN(C)CC/C=C1/c2ccccc2Sc2ccc(Cl)cc21` [Chlorprothixene], in series [1], the LC50 was found to be 62 ± 9 µM. Also, in series [2], the “earliest time debilitated larvae observed after exposure, C. quinquefasciatus” value came to 1 h and the “larval mortality, C. quinquefasciatus, within the first 24 h” value (shortened to “larval mortality, C. quinquefasciatus”) was over 70%. Further, the “LT50, Cq” value in [2] (L3 larvae, ±SEM, n ≥ 3) was determined as 13.9 ± 2.0 h. Besides, the LC50 in series [5] was 41 ± 7 µM. Besides, the “larval mortality, Ae. aegypti, after 48 h” value in series [6] (48 h post exposure (S4 Fig)) is on record as over 70%. Moreover, the “LT50, Aa” value in series [6] (L3 larvae, ±SEM, n ≥ 3) worked out at 22.2 ± 3.2 h. Also, the “earliest time debilitated larvae observed after exposure, Ae. aegypti” value in series [6] (in vivo) was 2 h.

`CNC[C@H](O)c1ccc(O)c(O)c1` [Epinephrine, (-)-epinephrine bitartrate]: in series [8], a half-maximal effect (EC50) was put at 80.8 ± 21 µM and the “EC50 fold higher than that of dopamine, CqDOP2” value is on record as “at least 10 fold”. Also, the response in [9] was half-maximal at 41.1 ± 10.5 µM (EC50). For the same compound, in series [10], the “EC50 fold higher than that of dopamine, AaDOP2” value is “at least 10 fold”.

Turning to `NC[C@H](O)c1ccc(O)c(O)c1` [Norepinephrine, L (-)-norepinephrine bitartrate], the “fold more agonist required than dopamine, AmDOP2” value in series [11] was “approximately 25 fold”. Also, in [8], the response was half-maximal at 52.2 ± 13.8 µM (EC50) and the “EC50 fold higher than that of dopamine, CqDOP2” value was “at least 10 fold”. In series [9], the EC50 is 30.3 ± 7.5 µM. The “EC50 fold higher than that of dopamine, AaDOP2” value in series [10] is “at least 10 fold”.

`CN(C)CCCN1c2ccccc2Sc2ccc(Cl)cc21` [Chlorpromazine, chlorpromazine hydrochloride]: the median lethal concentration (LC50) in [1] was 88 ± 9 µM; in series [5] it was 64 ± 9 µM. Moreover, in [2], the “earliest time debilitated larvae observed after exposure, C. quinquefasciatus” value is reported as 1 h. Also, the “larval mortality, C. quinquefasciatus” value in [2] is on record as over 70%. Besides, the “LT50, Cq” value in series [2] (L3 larvae, ±SEM, n ≥ 3) came out at 16.7 ± 1.1 h. Moreover, the half-inhibitory concentration (IC50) in series [3] worked out at 0.0074 ± 0.002 µM; in [7], 0.019 ± 0.001 µM. Further, the “larval mortality, Ae. aegypti, after 48 h” value in series [6] (48 h post exposure (S4 Fig)) was over 70%. In [6] (L3 larvae, ±SEM, n ≥ 3), the “LT50, Aa” value was determined as 26.1 ± 0.9 h.

As to “(±) butaclamol hydrochloride [(±)-Butaclamol]”, in series [12], the IC50 stood at 0.172 ± 0.015 µM.

For `OCCN1CCN(CC/C=C2/c3ccccc3Sc3ccc(C(F)(F)F)cc32)CC1` [Cis-(Z)-flupenthixol, cis-(Z)-flupenthixol dihydrochloride], the values for the 50% lethal concentration (LC50) in series [1] and in [5] were 83 ± 25 µM and 59 ± 22 µM, respectively. Also, the “LT50, Cq” value in series [2] (L3 larvae, ±SEM, n ≥ 3) is 35.2 ± 6.1 h. In addition, the IC50 in [3] came to 0.002 ± 0.0005 µM; in series [7], 0.002 ± 0.0008 µM. The “LT50, Aa” value in [6] (L3 larvae, ±SEM, n ≥ 3) was found to be 42.6 ± 2.9 h.

Take `CCNC(=O)N1CCN(CCCC(c2ccc(F)cc2)c2ccc(F)cc2)CC1` [Amperozide, amperozide hydrochloride]: the LC50 in series [1] was determined as 161 ± 20 µM; in series [5], 135 ± 35 µM. Further, the “LT50, Cq” value in [2] (L3 larvae, ±SEM, n ≥ 3) is 25.4 ± 1.5 h. Further, the half-inhibitory concentration (IC50) is 0.248 ± 0.042 µM in [3], 16.2 ± 4.77 µM in series [4] (setting [13]) and 0.469 ± 0.071 µM in series [7]. For the same compound, the “LT50, Aa” value in series [6] (L3 larvae, ±SEM, n ≥ 3) was determined as 46.6 ± 6.2 h.

Turning to `CN1CCN2c3ccccc3Cc3ccccc3C2C1` (stereo not shown) [Mianserin], the “LT50, Cq” value in series [2] (L3 larvae, ±SEM, n ≥ 3) was 17.9 ± 3.0 h. In addition, the “LT50, Aa” value in [6] (L3 larvae, ±SEM, n ≥ 3) amounted to 22.8 ± 1.3 h.

Regarding `CSc1ccc2c(c1)C(N1CCN(C)CC1)Cc1ccccc1S2` (stereo not shown) [Methiothepin], the “earliest time debilitated larvae observed after exposure, C. quinquefasciatus” value in series [2] is 1 h. In addition, in series [2], the “larval mortality, C. quinquefasciatus” value is over 70%. For the same compound, the “LT50, Cq” value in series [2] (L3 larvae, ±SEM, n ≥ 3) was determined as 15.7 ± 4.9 h. Moreover, the LC50 in series [2] (read-out: LC50, Cq, L3 larvae, 72 h exposure, ±SEM, n ≥ 3) was found to be 44 ± 3 µM; in series [6] (read-out: LC50, Aa, L3 larvae, 72 h exposure, ±SEM, n ≥ 3), 69 ± 12 µM. Besides, in series [6] (48 h post exposure (S4 Fig)), the “larval mortality, Ae. aegypti, after 48 h” value is listed as over 70%. In addition, in series [6] (L3 larvae, ±SEM, n ≥ 3), the “LT50, Aa” value stood at 30.6 ± 1.4 h.

With `CN(C)CCCN1c2ccccc2CCc2ccc(Cl)cc21` [Clomipramine], the figures for the 50% lethal concentration (LC50) in series [1] and in series [5] were 88 ± 24 µM and 89 ± 19 µM, respectively. Besides, in series [2] (L3 larvae, ±SEM, n ≥ 3), the “LT50, Cq” value amounted to 27.3 ± 3.0 h. In addition, in series [6] (L3 larvae, ±SEM, n ≥ 3), the “LT50, Aa” value turned out to be 28.7 ± 3.1 h.

Values taken from PMC4368516 (PLoS Neglected Tropical Diseases, 2015).
